Assay results as given in US7368462B1, “Melanin concentrating hormone antagonists” (The Procter & Gamble Company, priority 2004, dated 2008).

How the values were obtained:
5-HT2c receptor = target: T1, 5-HT2c receptor (Homo sapiens, UniProt P28335); assay: 5-HT2c receptor binding assay (3H-mesulergine competition)
T1 sequence (P28335 33-458): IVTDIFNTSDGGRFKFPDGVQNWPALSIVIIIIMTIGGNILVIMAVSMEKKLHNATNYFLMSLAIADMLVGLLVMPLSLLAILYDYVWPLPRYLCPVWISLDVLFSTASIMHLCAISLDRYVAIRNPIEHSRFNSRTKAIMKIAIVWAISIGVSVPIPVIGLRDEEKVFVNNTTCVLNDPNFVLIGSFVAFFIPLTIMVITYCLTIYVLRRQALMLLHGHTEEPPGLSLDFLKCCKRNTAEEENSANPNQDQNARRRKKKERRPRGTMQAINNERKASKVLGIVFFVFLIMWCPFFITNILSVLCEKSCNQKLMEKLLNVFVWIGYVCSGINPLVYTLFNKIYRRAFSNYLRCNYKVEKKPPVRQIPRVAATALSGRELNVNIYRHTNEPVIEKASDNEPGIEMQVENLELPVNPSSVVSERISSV
Method: Binding assays for serotonin receptor, 5-HT2c receptor MCH antagonist compounds are evaluated for binding to the serotonin 5-HT2c receptor to determine receptor selectivity. Binding activity is assessed using a competitive assay with ^3H-mesulergine (Perkin Elmer), a 5-HT2c selective ligand, on membrane containing the 5-HT2c receptor. Briefly, 1 nM ^3H-mesulergine and varying concentrations of the compound are incubated with 5-HT2c receptor membranes, following an incubation period, the membranes are washed and ^3H-mesulergine bound to membranes is measured in a liquid scintillation counter. The amount of bound ^3H-mesulergine at the varying concentration of competitor compound is used to derive the affinity (Ki) of the compound for the 5-HT2c receptor. 5-HT2c receptor containing membranes are readily available from several companies including Perkin-Elmer and Euroscreen.

MCH1R = MCH1R (UniProt Q99705); assay: MCH1R competition binding assay
Method: In vitro binding and function assays are performed on membranes derived from cells or tissues expressing endogenous MCH1R. Competition binding assays are performed to identify high affinity compounds. Briefly, either radiolabeled or europium labeled MCH with varying concentrations of competitor compound which are incubated with membranes expressing the receptor. Rat brain membrane or cell lines, including but not limited to human Kelly neuroblastoma cells, A-431 epidermoid cells, and rat PC-12 cells are known to express endogenous MCH1R and are used in the assay. Binding is allowed to proceed until equilibrium is reached then bound labeled MCH is separated from free MCH by capturing membranes onto a filter. The filters are washed to remove loosely associated MCH and labeled MCH is quantified. Data is analyzed and IC50 and Ki are calculated to determine compound affinity.

Row | Structure (SMILES) | IC50 (5-HT2c receptor) [nM] | IC50 (MCH1R) [nM]
1 | CN(C)Cc1ccc2c(CNC(=O)c3ccc(-c4ccc(F)cc4)cc3)cccc2c1 [4′-Fluoro-biphenyl-4-carboxylic acid (6-dimethylaminomethyl-naphthalen-1-ylmethyl)-amide] | 1130 | 12
2 | CCN(CC)Cc1ccc2c(CN(C)C(=O)c3ccc(-c4ccc(C(F)(F)F)cc4)cc3)cccc2c1 [4′-Trifluoromethyl-biphenyl-4-carboxylic acid (6-diethylaminomethyl-naphthalen-1-ylmethyl)-methyl-amide] | 2060 | 70
